How the values were obtained:
[1] = Inhibition of TNF-alpha production in LPS stimulated human PBMC at 360 uM; type: functional
[2] = Inhibition of TNF-alpha production in LPS stimulated human PBMC; type: functional

Question: For `O=C1CCC(F)(N2C(=O)c3ccccc3C2=O)C(=O)N1` (stereo not drawn), which inhibition at 360 µM [1] is on record?
Answer: Its inhibition at 360 µM is 80%.

Question: Which IC50 [2] does the source give for `Nc1cccc2c1C(=O)N(C1(F)CCC(=O)NC1=O)C2=O` (stereo not drawn) here?
Answer: Its IC50 is 230 nM.

Question: Which IC50 [2] does the source give for `Nc1cccc2c1C(=O)N(C1CCC(=O)NC1=O)C2=O` (stereo not drawn) [POMALIDOMIDE] here?
Answer: The IC50 was 230 nM.

Reference: ChEMBL document CHEMBL1136276, “Alpha-fluoro-substituted thalidomide analogues” (Bioorg Med Chem Lett, 2003)
